# Assay results as given in patent US10703740B2, “Substituted benzimidazoles, their preparation and their use as pharmaceuticals” (NEOMED Institute, priority 2015, dated 2020).
# Tested on: human C-Myc transcription in MV-4-11 cells
# Assay: Transcription of human C-Myc in human leukemic MV-4-11 cells (QuantiGene 2.0)
# Assay type: cell-based
# Details: Homo sapiens, MV4-11, 4 h, inhibition of C-Myc mRNA, 4 hours treatment, read-out: IC50 MV-4-11 Cell
# Procedure: The effect of compounds on transcription of human C-Myc gene is monitored in human B-myelomonocytic leukemia cell line MV-4-11 (from American Type Culture Collection (ATCC), Manassas, Va., USA) using QuantiGene 2.0 assay kit (Affymetrix, Santa Clara, Calif., USA).
# Typically, 8,000 MV-4-11 cells are plated in sterile 96-well plates (Costar #3598 from Fisher Scientific Canada, Ottawa, Ontario, Canada) in Iscove's medium supplemented with 10% fetal bovine serum, glutamine (2 mM), and penicillin (100 I.U.) and streptomycin (100 μg/mL) (all from Wisent Inc., St. Bruno, Quebec, Canada). Compounds are dissolved in DMSO at 30 mM. A series of 1:3 dilutions are first made in DMSO, and further 1:100 dilutions are made in serum-containing cell culture media. The final concentration of DMSO is 0.1% in cell culture media. After cells are treated with various concentrations of test compound for 4 hours, cells are lysed using Quantigene 2.0 sample processing kit (# QS0100). C-Myc mRNA is detected using a QuantiGene 2.0 assay kit (# QS0009) with gene-specific probe to human C-Myc (# SA-50182) following the manufacturer's recommendations. Luminescene signals are read on Flexstation II microplate reader (Molecular Devices, Sunnyvale, Calif., USA).
row,IC50,SMILES
1,53 nM,"CCO[C@@H](C)Cn1c(C2CCC(F)(F)CC2)nc2ccc(-c3cc(C)c(=O)n(C)c3)cc21 [Compound 55, (S)-5-(2-(4,4-difluorocyclohexyl)-1-(2-ethoxypropyl)-1H-benzo[d]imidazol-6-yl)-1,3-dimethylpyridin-2(1H)-one]"
2,22 nM,"Cc1cc(-c2ccc3nc(C4CCOCC4)n(CCOC(C)C)c3c2)cn(C)c1=O [Compound 49, 5-(1-(2-isopropoxyethyl)-2-(tetrahydro-2H-pyran-4-yl)-1H-benzo[d]imidazole-6-yl)-1,3-dimethylpyridin-2(1H)-one]"
3,84 nM,"CCOCCn1c(C2CCC(F)(F)CC2)nc2ccc(-c3cc(C)c(=O)n(C)c3)cc21 [Compound 61, 5-(2-(4,4-difluorocyclohexyl)-1-(2-ethoxyethyl)-1H-benzo[d]imidazol-6-yl)-1,3-dimethylpyridin-2(1H)-one]"
4,17 nM,"CCOCCn1c(C2CCOCC2)nc2ccc(-c3cc(C)c(=O)n(C)c3)cc21 [Compound 60, 5-(1-(2-ethoxyethyl)-2-(tetrahydro-2H-pyran-4-yl)-1H-benzo[d]imidazol-6-yl)-1,3-dimethylpyridin-2(1H)-one]"
5,170 nM,"COCCn1c(CC2CCOCC2)nc2ccc(-c3cc(C)c(=O)n(C)c3)cc21 [Compound 42, 5-(1-(2-methoxyethyl)-2-((tetrahydro-2H-pyran-4-yl)methyl)-1H-benzo[d]imidazol-6-yl)-1,3-dimethylpyridin-2(1H)-one]"
6,27 nM,"CCOC[C@@H](C)n1c(C2CCOCC2)nc2ccc(-c3cc(C)c(=O)n(C)c3)cc21 [Compound 47, (R)-5-(1-(1-ethoxypropan-2-yl)-2-(tetrahydro-2H-pyran-4-yl)-1H-benzo[d]imidazol-6-yl)-1,3-dimethylpyridin-2(1H)-one]"
7,62 nM,"COC[C@@H](C)n1c(C2CC(F)(F)C2)nc2ccc(-c3cc(C)c(=O)n(C)c3)cc21 [Compound 51, (R)-5-(2-(3,3-difluorocyclobutyl)-1-(1-methoxypropan-2-yl)-1H-benzo[d]imidazol-6-yl)-1,3-dimethylpyridin-2(1H)-one]"
8,260 nM,"CCOC[C@H](C)n1c(C2CCOCC2)nc2ccc(-c3cc(C)c(=O)n(C)c3)cc21 [Compound 48, (S)-5-(1-(1-ethoxypropan-2-yl)-2-(tetrahydro-2H-pyran-4-yl)-1H-benzo[d]imidazol-6-yl)-1,3-dimethylpyridin-2(1H)-one]"
9,160 nM,"Cc1cc(-c2ccc3nc(C4CC4)n(CCOCC(F)(F)F)c3c2)cn(C)c1=O [Compound 45, 5-(2-cyclopropyl-1-(2-(2,2,2-trifluoroethoxy)ethyl)-1H-benzo[d]imidazol-6-yl)-1,3-dimethylpyridin-2(1H)-one]"
10,840 nM,"COC(C)Cn1cnc2ccc(-c3cc(C)c(=O)n(C)c3)cc21 (stereo not drawn) [Compound 22a, 5-[3-(2-methoxypropyl)benzimidazol-5-yl]-1,3-dimethylpyridin-2-one]"
11,27 nM,"CCO[C@@H](C)Cn1c(C2CCOCC2)nc2ccc(-c3cc(C)c(=O)n(C)c3)cc21 [Compound 40, (S)-5-(1-(2-ethoxypropyl)-2-(tetrahydro-2H-pyran-4-yl)-1H-benzo[d]imidazol-6-yl)-1,3-dimethylpyridin-2(1H)-one]"
12,53 nM,"Cn1cc(-c2ccc3nc(C4CCOCC4)n(CCOC(F)(F)F)c3c2)cc(Cl)c1=O [Compound 36, 3-chloro-1-methyl-5-[2-tetrahydropyran-4-yl-3-[2-(trifluoromethoxy)ethyl]benzimidazol-5-yl]pyridin-2-one]"
13,21 nM,"COC1CC(c2nc3ccc(-c4cc(C)c(=O)n(C)c4)cc3n2CCOCC(F)(F)F)C1 (stereo not drawn) [Compound 62, 5-[2-(3-methoxycyclobutyl)-1-(2-(2,2,2-trifluoroethoxy)ethyl)-1H-benzo[d]imidazol-6-yl]-1,3-dimethylpyridin-2(1H)-one]"
14,51 nM,"CCOC[C@@H](C)n1c(C2CC(F)(F)C2)nc2ccc(-c3cc(C)c(=O)n(C)c3)cc21 [Compound 52, (R)-5-(2-(3,3-difluorocyclobutyl)-1-(1-ethoxypropan-2-yl)-1H-benzo[d]imidazol-6-yl)-1,3-dimethylpyridin-2(1H)-one]"
15,18 nM,"Cc1cc(-c2ccc3nc(C4CCOCC4)n([C@H](C)COC(C)C)c3c2)cn(C)c1=O [Compound 66, (R)-5-(1-(1-isopropoxypropan-2-yl)-2-(tetrahydro-2H-pyran-4-yl)-1H-benzo[d]imidazol-6-yl)-1,3-dimethylpyridin-2(1H)-one]"
16,250 nM,"CCc1cc(-c2ccc3nc(C4CC4)n(CCOC(F)(F)F)c3c2)cn(C)c1=O [Compound 14, 5-(2 cyclopropyl-3-(2-(trifluoromethoxy)ethyl)benzimidazol-5-yl)-3-ethyl-1-methylpyridin-2-one]"
17,220 nM,"Cc1cc(-c2ccc3nc(C4CCOCC4)n(CC(C)C(F)(F)F)c3c2)cn(C)c1=O (stereo not drawn) [Compound 46a, 1,3-dimethyl-5-(2-(tetrahydro-2H-pyran-4-yl)-1-(3,3,3-trifluoro-2-methylpropyl)-1H-benzo[d]imidazol-6-yl)pyridin-2(1H)-one]"
18,220 nM,"Cc1cc(-c2ccc3nc(C4CCOCC4)n(CCC(F)(F)F)c3c2)cn(C)c1=O [Compound 34, 1,3-dimethyl-5-[2-tetrahydropyran-4-yl-3-(3,3,3-trifluoropropyl)benzimidazol-5-yl]pyridin-2-one]"
19,24 nM,"Cc1cc(-c2ccc3nc(C4(C)CCOCC4)n(CCOC(F)(F)F)c3c2)cn(C)c1=O [Compound 31, 1,3-dimethyl-5-(2-(4-methyltetrahydro-2H-pyran-4-yl)-1-(2-(trifluoromethoxy)ethyl)-1H-benzo[d]imidazol-6-yl)pyridin-2(1H)-one]"
20,170 nM,"CCO[C@H](C)Cn1c(C2CC(F)(F)C2)nc2ccc(-c3cc(C)c(=O)n(C)c3)cc21 [Compound 54, (R)-5-(2-(3,3-difluorocyclobutyl)-1-(2-ethoxypropyl)-1H-benzo[d]imidazol-6-yl)-1,3-dimethylpyridin-2(1H)-one]"
21,810 nM,"COC[C@H](C)n1c(C2CC2)nc2ccc(-c3cc(C)c(=O)n(C)c3)cc21 [Compound 17, 5-[2-cyclopropyl-3-[(1S)-2-methoxy-1-methylethyl]benzimidazol-5-yl]-1,3-dimethyl pyridin-2-one]"
22,490 nM,"COCCn1c(Cc2ccccc2)nc2ccc(-c3cc(C)c(=O)n(C)c3)cc21 [Compound 37, 5-(2-benzyl-1-(2-methoxyethyl)-1H-benzo[d]imidazol-6-yl)-1,3-dimethylpyridin-2(1H)-one]"
23,240 nM,"COCCn1c(C2CCCCC2)nc2ccc(-c3cc(C)c(=O)n(C)c3)cc21 [Compound 38, 5-(2-cyclohexyl-1-(2-methoxyethyl)-1H-benzo[d]imidazol-6-yl)-1,3-dimethylpyridin-2(1H)-one]"
24,170 nM,"COC[C@H](C)n1c(C2CCOCC2)nc2ccc(-c3cc(C)c(=O)n(C)c3)cc21 [Compound 18, 5-[3-[(1S)-2-methoxy-1-methylethyl]-2-tetrahydropyran-4-yl-benzimidazol-5-yl]-1,3-dimethylpyridin-2-one]"
25,26 nM,"Cc1cc(-c2ccc3nc(C4CCOCC4)n(C[C@H](C)OC(C)C)c3c2)cn(C)c1=O [Compound 67, (S)-5-(1-(2-isopropoxypropyl)-2-(tetrahydro-2H-pyran-4-yl)-1H-benzo[d]imidazol-6-yl)-1,3-dimethylpyridin-2(1H)-one]"
26,72 nM,"COC[C@@H](C)n1c(C2CCC(F)(F)CC2)nc2ccc(-c3cc(C)c(=O)n(C)c3)cc21 [Compound 57, (R)-5-(2-(4,4-difluorocyclohexyl)-1-(1-methoxypropan-2-yl)-1H-benzo[d]imidazol-6-yl)-1,3-dimethylpyridin-2(1H)-one]"
27,510 nM,"COC(C)Cn1c(C)nc2ccc(-c3cc(C)c(=O)n(C)c3)cc21 (stereo not drawn) [Compound 21a, 5-[3-(2-methoxypropyl)-2-methylbenzimidazol-5-yl]-1,3-dimethylpyridin-2-one]"
28,50 nM,CO[C@H]1C[C@@H](c2nc3ccc(-c4cc(C)c(=O)n(C)c4)cc3n2CCOC(F)(F)F)C1 [Compound 28b]

# Same assay, conditions: inhibition of C-Myc mRNA, 4 hours treatment, read-out: IC50 MV-4-11 Cell
row,IC50,SMILES
1,590 nM,"COC(C)Cn1c(C)nc2ccc(-c3cc(C)c(=O)n(C)c3)cc21 (stereo not drawn) [Compound 21b, 5-[3-(2-methoxypropyl)-2-methylbenzimidazol-5-yl]-1,3-dimethylpyridin-2-one]"
2,25 nM,"COC1CC(c2nc3ccc(-c4cc(C)c(=O)n(C)c4)cc3n2CCOC(C)C)C1 (stereo not drawn) [Compound 65, 5-[1-(2-isopropoxyethyl)-2-(3-methoxycyclobutyl)-1H-benzo[d]imidazol-6-yl]-1,3-dimethylpyridin-2(1H)-one]"
3,730 nM,"COC(C)Cn1c(C2CC2)nc2ccc(-c3cc(C)c(=O)n(C)c3)cc21 (single isomer, unassigned) [Compound 23b, 5-[2-cyclopropyl-3-(2-methoxypropyl)benzimidazol-5-yl]-1,3-dimethylpyridin-2-one]"
4,250 nM,"COC(C)Cn1c(C2CC2)nc2ccc(-c3cc(C)c(=O)n(C)c3)cc21 (single isomer, unassigned) [Compound 23a, 5-[2-cyclopropyl-3-(2-methoxypropyl)benzimidazol-5-yl]-1,3-dimethylpyridin-2-one]"
5,780 nM,"COC(C)Cn1cnc2ccc(-c3cc(C)c(=O)n(C)c3)cc21 (stereo not drawn) [Compound 22b, 5-[3-(2-methoxypropyl)benzimidazol-5-yl]-1,3-dimethylpyridin-2-one]"
